The test system of one assay is MV4‐11 cells. As to the kind of experiment: Cell viability endpoint assay (Celltiter Blue, 72 h). Conditions: Homo sapiens, MV4-11, mean±SD from two independent experiments. Type of assay: cell-based. How it is done:
Cell lines. MV4‐11 (ACC 102), Jurkat (ACC 282) and THP‐1 (ACC 16) cells were obtained from DSMZ and maintained at 37 °C and 5 % CO2 at densities between 0.2–1×10^6 cells per mL in RMPI‐1640 medium supplemented with 10 % FBS, L‐glutamine (2 mM) and penicillin/streptomycin.
Cell viability endpoint assay. For the determination of cytotoxicity of proteasome inhibitors 50.000 cells per well were plated in 90 μl RPMI‐1640 medium supplemented with 0.1 % FBS and incubated overnight at 37 °C and 5 % CO2. Inhibitors were serially diluted in RPMI‐1640 medium as 10‐fold stocks and added to cells giving the final concentration (1 nM to 10 μM, Figure S2–S4) and incubated for 72 h at 37 °C and 5 % CO2. Cell viability was determined using the Celltiter Blue assay (Promega) by adding 20 μl of reagent, incubation for 120 minutes at 37 °C and 5 % CO2 and fluorescent read‐out using a Tecan M1000 microplate reader. Dose‐response curves were fitted to the equation “Y=Bottom+(Top‐Bottom)/(1+10^(X−L°^gIC50))” using GraphPad Prism 7.02. IC50 values are determined from technical triplicates as mean value of two independent experiments. Standard deviations (Table S1) as well as dose response curves (SI chapter 2b) are given in the supplementary information.
A general note: Alamar Blue is a resazurin reagent that responds to reducing activity.

Assay [1] concerns the target T1, β1c subunit of isolated human 20S proteasome (Homo sapiens, UniProt P28072).
T1 construct: purchased Enzo Life Sciences
The assay is described as follows: Proteasome inhibition assay (20 S Proteasome Assay Kit, Z‐LLE‐AMC). Type of assay: biochemical. Conditions: read-out: Inhibition cCP β1. How it is done: (§1) Proteasome inhibition assay. […] The 20 S Proteasome Assay Kit for Drug Discovery was used according to the supplier's protocol using Suc‐LLVY‐AMC (β5), Bz‐VGR‐AMC (β2) or Z‐LLE‐AMC (β1) as substrates (Enzo Life Sciences). Single point measurements of residual activity of proteasome activity were performed at a final concentration of 100 nM (n=3, β5c, β5i) or 1 μM (n=1, β1c, β2c, β5c, β5i, SI chapter 2a, Table S1). […] Inhibitors were prepared in 2‐fold concentration (cfinal=100 nM) and added to proteasomes (mfinal=200 ng/well). After 30 min incubation, substrate was added (cfinal=100 μM), incubated for 60 minutes and fluorescence was read using a Tecan M1000 microplate reader. […] IC50 values were determined from technical duplicates as mean value of three independent experiments.

The target of assay [2] is T2, β5i subunit of isolated human 20S proteasome (Homo sapiens, UniProt P28062).
T2 construct: purchased Enzo Life Sciences
As to the kind of experiment: Proteasome inhibition assay (20 S Proteasome Assay Kit, Suc‐LLVY‐AMC). Type of assay: biochemical. The following applies: for inhibition at 1 µM: c = 1 µM, n=1, read-out: Inhibition iCP β5; for inhibition at 0.1 µM: c=100 nM, read-out: Rel. Inhibition β5i. Here is the method:
as §1

In assay [3] the target is T3, β5c subunit of isolated human 20S proteasome (Homo sapiens, UniProt P28074).
T3 construct: purchased Enzo Life Sciences
Described as above. Format: biochemical. The following applies: for inhibition at 1 µM: read-out: Inhibition cCP β5; for inhibition at 0.1 µM: read-out: Rel. Inhibition β5c. Here is the method: as §1

Assay [4] concerns the target T4, β2c subunit of isolated human 20S proteasome (Homo sapiens, UniProt Q99436).
T4 construct: purchased Enzo Life Sciences
As to the kind of experiment: Proteasome inhibition assay (20 S Proteasome Assay Kit, Bz‐VGR‐AMC). Format: biochemical. Conditions: c = 1 µM, n=1; read-out: Inhibition cCP β2. How it is done: Proteasome inhibition assay. Bortezomib (Selleckchem) and carfilzomib (MedChemExpress) were purchased and used without further purification. The 20 S Proteasome Assay Kit for Drug Discovery was used according to the supplier's protocol using Suc‐LLVY‐AMC (β5), Bz‐VGR‐AMC (β2) or Z‐LLE‐AMC (β1) as substrates (Enzo Life Sciences). Single point measurements of residual activity of proteasome activity were performed at a final concentration of 100 nM (n=3, β5c, β5i) or 1 μM (n=1, β1c, β2c, β5c, β5i, SI chapter 2a, Table S1). […] Inhibitors were prepared in 2‐fold concentration (cfinal=100 nM) and added to proteasomes (mfinal=200 ng/well). After 30 min incubation, substrate was added (cfinal=100 μM), incubated for 60 minutes and fluorescence was read using a Tecan M1000 microplate reader. Dose‐response curves were fitted to the equation Y=100/(1+10^((L°^gIC50−X)*HillSl°^pe)) using GraphPad Prism 7.02. IC50 values were determined from technical duplicates as mean value of three independent experiments.

Structures are written as SMILES. Read-outs that look alike come from different tables or passages of the source. Peptide text beside a SMILES is read from it. * marks the point of attachment. Cbz = O=C(OCc1ccccc1)*

For the molecule `CC(C)C[C@H](NC(=O)OCc1ccccc1)C(=O)N[C@@H](CC(C)C)C(=O)N[C@@H](CC(C)C)C(=O)C(=O)Nc1ccccc1Oc1ccccc1` [Compound 8, Benzyl‐((S)‐4‐methyl‐1‐(((S)‐4‐methyl‐1‐(((S)‐5‐methyl‐1,2‐dioxo‐1‐((2‐phenoxyphenyl)‐amino)hexan‐3‐yl)amino)‐1‐oxopentan‐2‐yl)amino)‐1‐oxopentan‐2‐yl)carbamate], the IC50 in the assay on MV4‐11 cells amounted to 203 ± 22 nM. Further, the inhibition at 1 µM in assay [1] (c = 1 µM, n=1) is -7%; in assay [2], 7%; in assay [3] (c = 1 µM, n=1), 32%; in assay [4], -4%. Besides, the inhibition at 0.1 µM in assay [2] came to 8%; in assay [3] (c=100 nM) it was 12%.

With `Cc1ccc(NC(=O)C(=O)[C@H](CC(C)C)NC(=O)[C@H](CC(=O)OC(C)(C)C)NC(=O)[C@H](CC(C)C)NC(=O)OCc2ccccc2)c(C)c1` [Compound 17, tert ‐Butyl‐(S)‐3‐((S)‐2‐(((benzyloxy)carbonyl)amino)‐4‐methylpentanamido)‐4‐(((S)‐1‐((2,4‐dime‐thylphenyl)amino)‐5‐methyl‐1,2‐dioxohexan‐3‐yl)amino)‐4‐oxobutanoate], the IC50 in the assay on MV4‐11 cells was 46 ± 1 nM. In addition, the inhibition at 1 µM in assay [1] (c = 1 µM, n=1) is 11%; in assay [2], 69%; in assay [3] (c = 1 µM, n=1), 88%; in assay [4] it was -10%. Besides, the figures for the inhibition at 0.1 µM in assay [2] and in assay [3] (c=100 nM) were 36% and 43%, respectively.

In turn, `Cc1ccc(NC(=O)C(=O)[C@H](CC(C)C)NC(=O)[C@H](CC(C)C)NC(=O)[C@H](CC(C)C)NC(=O)OCc2ccccc2)cc1Oc1ccccc1` [Compound 13, Benzyl((S)‐4‐methyl‐1‐(((S)‐4‐methyl‐1‐(((S)‐5‐methyl‐1‐((4‐methyl‐3‐phenoxyphenyl)‐amino)‐1,2‐dioxohexan‐3‐yl)amino)‐1‐oxopentan‐2‐yl)amino)‐1‐oxopentan‐2‐yl)carbamate] came in with an IC50 in the assay on MV4‐11 cells of 23 ± 2 nM. Further, the inhibition at 1 µM in assay [1] (c = 1 µM, n=1) is -4%; in assay [2] it was 15%; in assay [3] (c = 1 µM, n=1), 69%; in assay [4], 4%. Besides, the inhibition at 0.1 µM was 28% in assay [2] and 49% in assay [3] (c=100 nM).

As to `CC(C)C[C@@H](C=O)NC(=O)[C@H](CC(C)C)NC(=O)[C@H](CC(C)C)NC(=O)OCc1ccccc1` [Compound 4, MG132, reference compound] (Cbz-Leu-Leu-Leu-aldehyde), the IC50 in the assay with MV4‐11 cells stood at 131 ± 12 nM. Moreover, the inhibition at 1 µM in assay [1] stood at 27%; in assay [3], 82%; in assay [4], 21%. Besides, the inhibition at 0.1 µM in assay [3] turned out to be 43%.

`Cc1ccc(NC(=O)C(=O)[C@H](CC(C)C)NC(=O)[C@H](CC(C)C)NC(=O)[C@H](CC(C)C)NC(=O)OCc2ccccc2)c(C)c1Oc1ccccc1` [Compound 12, Benzyl((S)‐1‐(((S)‐1‐(((S)‐1‐((2,4‐dimethyl‐3‐phenoxyphenyl)amino)‐5‐methyl‐1,2‐dioxo‐hexan‐3‐yl)amino)‐4‐methyl‐1‐oxopentan‐2‐yl)amino)‐4‐methyl‐1‐oxopentan‐2‐yl)carbama‐te] showed an IC50 in the assay with MV4‐11 cells of 26 ± 8 nM. The inhibition at 1 µM was -33% in assay [1] (c = 1 µM, n=1); 16% in assay [2]; 53% in assay [3] (c = 1 µM, n=1); 4% in assay [4]. The results for the inhibition at 0.1 µM in assay [2] and in assay [3] (c=100 nM) were 9% and 20%, respectively.

`Cc1ccc(NC(=O)C(=O)[C@H](CC(C)C)NC(=O)[C@H](CC(=O)OC(C)(C)C)NC(=O)[C@H](CC(C)C)NC(=O)c2cc(Cl)ccc2Cl)c(C)c1` [Compound 28, tert ‐Butyl (S)‐3‐((S)‐2‐(2,5‐dichlorobenzamido)‐4‐methylpentanamido)‐4‐(((S)‐1‐((2,4‐dimethyl‐phenyl)amino)‐5‐methyl‐1,2‐dioxohexan‐3‐yl)amino)‐4‐oxobutanoate] came in with an IC50 in the assay with MV4‐11 cells of 47 ± 5 nM. Besides, the inhibition at 1 µM in assay [1] (c = 1 µM, n=1) is -10%; in assay [2] it was 52%; in assay [3] (c = 1 µM, n=1), 81%; in assay [4], 6%. The values for the inhibition at 0.1 µM in assay [2] and in assay [3] (c=100 nM) were 35% and 26%, respectively.

In turn, `Cc1cc(C)c(Oc2ccccc2)cc1NC(=O)C(=O)[C@H](CC(C)C)NC(=O)[C@H](CC(=O)OC(C)(C)C)NC(=O)[C@H](CC(C)C)NC(=O)OCc1ccccc1` [Compound 21, tert ‐Butyl(S)‐3‐((S)‐2‐(((benzyloxy)carbonyl)amino)‐4‐methylpentanamido)‐4‐(((S)‐1‐((2,4‐dime‐thyl‐5‐phenoxyphenyl)amino)‐5‐methyl‐1,2‐dioxohexan‐3‐yl)amino)‐4‐oxobutanoate] showed an IC50 in the assay with MV4‐11 cells of 297 ± 27 nM. Further, the inhibition at 1 µM was -4% in assay [1] (c = 1 µM, n=1); 17% in assay [2]; 52% in assay [3] (c = 1 µM, n=1); 11% in assay [4]. Also, the inhibition at 0.1 µM in assay [3] (c=100 nM) is 33%.

`CC(C)C[C@@H](C=O)NC(=O)[C@H](CC(=O)OC(C)(C)C)NC(=O)[C@H](CC(C)C)NC(=O)c1cc(Cl)ccc1Cl` [Compound 25, tert ‐Butyl (S)‐3‐((S)‐2‐(2,5‐dichlorobenzamido)‐4‐methylpentanamido)‐4‐(((S)‐4‐methyl‐1‐oxopen‐tan‐2‐yl)amino)‐4‐oxobutanoate] returned an IC50 with MV4‐11 cells of 28 ± 5 nM. Also, the inhibition at 1 µM in assay [1] (c = 1 µM, n=1) was found to be 9%; in assay [2], 75%; in assay [3] (c = 1 µM, n=1), 90%; in assay [4], 10%. The inhibition at 0.1 µM in assay [2] was 38%; in assay [3] (c=100 nM), 64%.

Regarding `Cc1ccc(Oc2ccccc2)cc1NC(=O)C(=O)[C@H](CC(C)C)NC(=O)[C@H](CC(C)C)NC(=O)[C@H](CC(C)C)NC(=O)OCc1ccccc1` [Compound 15, Benzyl((S)‐4‐methyl‐1‐(((S)‐4‐methyl‐1‐(((S)‐5‐methyl‐1‐((2‐methyl‐5‐phenoxyphenyl)‐amino)‐1,2‐dioxohexan‐3‐yl)amino)‐1‐oxopentan‐2‐yl)amino)‐1‐oxopentan‐2‐yl)carbamate], the IC50 with MV4‐11 cells is 16 ± 1 nM. For the same molecule, the inhibition at 1 µM is -2% in assay [1] (c = 1 µM, n=1); 48% in assay [2]; 75% in assay [3] (c = 1 µM, n=1); 9% in assay [4]. Besides, the inhibition at 0.1 µM was 19% in assay [2] and 26% in assay [3] (c=100 nM).

`Cc1ccc(NC(=O)C(=O)[C@H](CC(C)C)NC(=O)[C@H](CC(C)C)NC(=O)[C@H](CC(C)C)NC(=O)c2cc(Cl)ccc2Cl)c(C)c1` [Compound 26, 2,5‐Dichloro‐N‐((S)‐1‐(((S)‐1‐(((S)‐1‐((2,4‐dimethylphenyl)amino)‐5‐methyl‐1,2‐dioxohexan‐3‐yl)amino)‐4‐methyl‐1‐oxopentan‐2‐yl)amino)‐4‐methyl‐1‐oxopentan‐2‐yl)‐benzamide] yielded an IC50 in the assay on MV4‐11 cells of 25 ± 5 nM. The inhibition at 1 µM is -38% in assay [1] (c = 1 µM, n=1); 24% in assay [2]; 51% in assay [3] (c = 1 µM, n=1); 17% in assay [4]. Further, the inhibition at 0.1 µM in assay [2] was found to be 4%; in assay [3] (c=100 nM), 25%.

One may read the IC50 as the midpoint of a concentration-inhibition curve. By inhibition is commonly meant the drop in the measured response relative to a control, in per cent.

Source of the values: paper PMC6916368, “Cell‐Based Optimization of Covalent Reversible Ketoamide Inhibitors Bridging the Unprimed to the Primed Site of the Proteasome β5 Subunit” (Chemmedchem, 2019).
